This assay deals with Tyrosine-protein kinase Lck (Homo sapiens, UniProt P06239).

Where a SMILES comes first, the peptide text is derived from it. [ ]: non-standard residue; d: D form. The star is where a group is joined. pY = N[C@@H](Cc1ccc(OP(=O)(O)O)cc1)C(=O)O; NHPhenethyl = c1ccc(CCN*)cc1; NHBn = c1ccc(CN*)cc1; NHPh = c1ccc(N*)cc1

Consider 19 molecules from ChEMBL document CHEMBL1132589, “Phosphotyrosine-containing dipeptides as high-affinity ligands for the p56lck SH2 domain” (J Med Chem, 1999).

Chain of Tyrosine-protein kinase Lck (P06239 whole entry): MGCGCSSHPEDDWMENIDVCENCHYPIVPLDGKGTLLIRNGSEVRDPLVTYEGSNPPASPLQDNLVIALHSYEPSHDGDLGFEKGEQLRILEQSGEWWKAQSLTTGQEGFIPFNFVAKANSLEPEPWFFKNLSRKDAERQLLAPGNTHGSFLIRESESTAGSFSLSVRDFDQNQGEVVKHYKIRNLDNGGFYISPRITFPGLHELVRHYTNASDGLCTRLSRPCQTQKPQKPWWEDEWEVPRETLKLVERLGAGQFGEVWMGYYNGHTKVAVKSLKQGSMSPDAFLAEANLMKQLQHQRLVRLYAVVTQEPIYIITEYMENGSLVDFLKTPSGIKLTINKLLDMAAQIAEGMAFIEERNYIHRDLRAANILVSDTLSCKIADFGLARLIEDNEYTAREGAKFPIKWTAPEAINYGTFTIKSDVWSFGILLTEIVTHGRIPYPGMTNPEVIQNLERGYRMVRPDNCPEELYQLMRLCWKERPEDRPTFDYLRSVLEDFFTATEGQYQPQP
Description: Binding affinity against p56 Lck tyrosine kinase SH2 domain was measured using glutathione S-transferase (GST) fusion protein

As for `CC(=O)N[C@@H](Cc1ccc(OP(=O)(O)O)cc1)C(=O)N[C@@H](CC(C)C)C(=O)NCc1cccnc1`, the dissociation constant (Kd) turned out to be 34 µM. `CC(=O)N[C@@H](Cc1ccc(OP(=O)(O)O)cc1)C(=O)N[C@@H](CC(C)C)C(=O)NCc1ccncc1` had a Kd of 16 µM.

The molecule `CC(=O)N[C@@H](Cc1ccc(OP(=O)(O)O)cc1)C(=O)N[C@@H](CC(C)C)C(=O)NCc1ccc(C(C)(C)C)cc1` displayed a Kd of 8 µM.

`CC(=O)N[C@@H](Cc1ccc(OP(=O)(O)O)cc1)C(=O)N[C@@H](CC(C)C)C(=O)N[C@@H](C)c1ccc(C)cc1` yielded a dissociation constant Kd of 1.5 µM. The same measure for `CC(=O)N[C@@H](Cc1ccc(OP(=O)(O)O)cc1)C(=O)N[C@@H](CC(C)C)C(=O)NCc1ccccn1`: 31 µM; for `COc1ccc(CNC(=O)[C@H](CC(C)C)NC(=O)[C@H](Cc2ccc(OP(=O)(O)O)cc2)NC(C)=O)cc1OC`: 12 µM; for `COc1ccc(CNC(=O)[C@H](CC(C)C)NC(=O)[C@H](Cc2ccc(OP(=O)(O)O)cc2)NC(C)=O)cc1`: 1.5 µM. Under `CC(=O)N[C@@H](Cc1ccc(OP(=O)(O)O)cc1)C(=O)N[C@@H](CC(C)C)C(=O)NCc1ccc(C)cc1` stands 2.5 µM. The same measure for `CC(=O)N[C@@H](Cc1ccc(OP(=O)(O)O)cc1)C(=O)N[C@@H](CC(C)C)C(=O)N[C@H](C)c1ccc(C)cc1`: 27 µM; for `CC(=O)N[C@@H](Cc1ccc(OP(=O)(O)O)cc1)C(=O)N[C@@H](CC(C)C)C(=O)N(C)Cc1ccc(C)cc1`: 2 µM; for `CC(=O)N[C@@H](Cc1ccc(OP(=O)(O)O)cc1)C(=O)N[C@@H](CC(C)C)C(=O)NCc1ccc(C(C)C)cc1`: 0.8 µM. Consider `CC(=O)N[C@@H](Cc1ccc(OP(=O)(O)O)cc1)C(=O)N[C@@H](CC(C)C)C(=O)N[C@@H](C)c1ccc(C(C)C)cc1`, for which the affinity, expressed as Kd, was 0.2 µM. Under `CC(=O)N[C@@H](Cc1ccc(OP(=O)(O)O)cc1)C(=O)N[C@@H](CC(C)C)C(=O)NCc1ccc(N(C)C)cc1` stands 20 µM; under `COc1ccccc1CNC(=O)[C@H](CC(C)C)NC(=O)[C@H](Cc1ccc(OP(=O)(O)O)cc1)NC(C)=O`, 17 µM. Under `COc1ccc(CNC(=O)[C@H](CCC(=O)O)NC(=O)[C@H](Cc2ccc(OP(=O)(O)O)cc2)NC(C)=O)cc1` stands 0.2 µM; under `COc1cccc(CNC(=O)[C@H](CC(C)C)NC(=O)[C@H](Cc2ccc(OP(=O)(O)O)cc2)NC(C)=O)c1`, 9 µM; under `CC(=O)N[C@@H](Cc1ccc(OP(=O)(O)O)cc1)C(=O)N[C@@H](CCC(=O)O)C(=O)Nc1ccccc1` (Ac-[pY]-Glu-NHPh), 8 µM. The molecule `CC(=O)N[C@@H](Cc1ccc(OP(=O)(O)O)cc1)C(=O)N[C@@H](CCC(=O)O)C(=O)NCCc1ccccc1` (Ac-[pY]-Glu-NHPhenethyl) had an equilibrium dissociation constant (Kd) of 4 µM. In the case of `CC(=O)N[C@@H](Cc1ccc(OP(=O)(O)O)cc1)C(=O)N[C@@H](CC(C)C)C(=O)NCc1ccccc1` (Ac-[pY]-Leu-NHBn), the Kd is 16 µM.
